Bridge positions count the residues as written; N and C are the ends. Square brackets hold non-standard residues; d marks the D form. Peptide text beside a SMILES is read from it. * marks the point of attachment. NH(β-GlcNAc) = CC(=O)N[C@@H]1[C@@H](O)[C@H](O)[C@@H](CO)O[C@H]1N*; Dap = NC[C@H](N)C(=O)O
Tested on: SARS-CoV-2
Assay: microbe, parasite or virus in culture
Settings: Severe acute respiratory syndrome coronavirus 2, Vero C1008, 48 h

SMILES | IC50 | IC50 (read-out: pIC50 (converted))
Nc1ccc(S(=O)(=O)Nc2cnc3ccccc3n2)cc1 [SULFAQUINOXALINE] | > 20 µM | > 20 µM
Cn1cc([S+](C)[O-])c(=O)c2ccc(F)cc21 (centres undefined) [FLOSEQUINAN] | > 20 µM | > 20 µM
C[C@]12CC[C@@H]3c4ccc(O)cc4CC[C@H]3[C@@H]1CCC2=O [ESTRONE] | > 20 µM | > 20 µM
CCC1(C2=NCCN2)Cc2ccccc2O1 (centres undefined) [EFAROXAN] | > 20 µM | > 20 µM
CO[C@H]1C=C2CCN(C)[C@H]2[C@@H]2c3cc4c(cc3C(=O)O[C@H]21)OCO4 (single isomer, unassigned) | > 20 µM | > 20 µM
NC1CCCCC1 [CYCLOHEXYLAMINE] | > 20 µM | > 20 µM
Cc1ccc(Cl)c(Nc2ccccc2C(=O)O)c1Cl [MECLOFENAMIC ACID] | > 20 µM | > 20 µM
O=C(O)C(O)C(O)C(=O)O (centres undefined) [TARTARIC ACID] | > 20 µM | > 20 µM
COC1CCC2(C)C(=CCC3C2CCC2(C)C(C(C)=O)CCC32)C1 (centres undefined) | > 20 µM | > 20 µM
Cc1[nH]nc(C(F)(F)F)c1Cc1sc2c(c1C(=O)N1C[C@](C)(O)CO1)c(=O)n(C)c(=O)n2C(C)C [AZD3965] | > 20 µM | > 20 µM
c1ccc2ncccc2c1 [QUINOLINE] | > 20 µM | > 20 µM
O=C(O)c1ccc(NC(=O)C(Cc2ccc(O)cc2)NC(=O)c2ccccc2)cc1 (centres undefined) | > 20 µM | > 20 µM
O=c1[nH]c(=O)n(C2CC(O)C(CO)O2)cc1I (centres undefined) | > 20 µM | > 20 µM
O=C(O)c1ccc(CN2CC3CC2CN3Cc2ccc(Oc3ccc(-c4ncco4)cc3)cc2)cc1 (centres undefined) | > 20 µM | > 20 µM
CCn1c(C(=O)N(C2CC2)C2CC2)cc2c3c(ncn3C)c(Nc3cc(C)n(C)n3)nc21 [BMS-911543] | > 20 µM | > 20 µM
O=C(NO)c1cc(Br)ccc1O [BROMOCYL] | > 20 µM | > 20 µM
CC(=O)N[C@@H]1[C@@H](O)[C@H](O)[C@@H](CO)O[C@H]1NC(=O)C[C@@H]1NC(=O)[C@H](CC(C)C)NC(=O)[C@@H]2CNC(=O)C[C@H](NC1=O)C(=O)N[C@@H](Cc1c[nH]c3ccccc13)C(=O)N[C@@H](Cc1ccccc1)C(=O)N2 [NEPADUTANT] (cyclo(D(NH(β-GlcNAc))DWF[Dap]L); lactam 2-5) | > 20 µM | > 20 µM
N[C@@H]1CONC1=O [CYCLOSERINE] | > 20 µM | > 20 µM
COc1cc(OC)c2c(=O)cc(-c3ccccc3)oc2c1 [CHRYSIN DIMETHYL ETHER] | > 20 µM | > 20 µM
O=C(O)CCCO [OXYBATE] | > 20 µM | > 20 µM
CCOC(=O)[C@@H](N)Cc1ccc(-c2cc(O[C@H](c3ccc(Cl)cc3-n3ccc(C)n3)C(F)(F)F)nc(N)n2)cc1 [TELOTRISTAT ETHYL] | > 20 µM | > 20 µM
O=C(O)Cc1cn(-c2ccccc2)nc1-c1ccc(Cl)cc1 [LONAZOLAC] | > 20 µM | > 20 µM
Oc1ccc(O)cc1 [HYDROQUINONE] | > 20 µM | > 20 µM
COc1ccc(C(=O)N2CCCC2=O)cc1 | > 20 µM | > 20 µM

SMILES | IC50 | IC50 (read-out: pIC50 (converted))
CN1[C@@H]2CC[C@H]1C[C@@H](OC(=O)C(CO)c1ccccc1)C2 (some centres undefined) [ATROPINE] | > 20 µM | > 20 µM
Cc1ccc(C2(O)CCN(CCCC(=O)c3ccc(F)cc3)CC2)cc1 [MOPERONE] | > 20 µM | > 20 µM
CC1(C)C2CC[C@@]1(C)C(=O)C2 | > 20 µM | > 20 µM
CC1(C)O[C@@H]2C[C@H]3[C@@H]4CCC5=CC(=O)C=C[C@]5(C)[C@@]4(F)[C@@H](O)C[C@]3(C)[C@]2(C(=O)CO)O1 [TRIAMCINOLONE ACETONIDE] | > 20 µM | > 20 µM
COC(=O)C1=COC(O[C@H]2OC(CO)[C@H](O)C(O)C2O)[C@H]2C1C(=O)C[C@@H]2C (some centres undefined) | > 20 µM | > 20 µM
CC(=O)[C@@]1(O)CC[C@H]2[C@@H]3C=C(Cl)C4=CC(=O)[C@@H]5C[C@@H]5[C@]4(C)[C@H]3CC[C@@]21C [CYPROTERONE] | > 20 µM | > 20 µM
C[C@H]1CC[C@]2(NC1)O[C@H]1C[C@H]3[C@@H]4CC[C@H]5C[C@@H](O)CC[C@]5(C)[C@H]4CC[C@]3(C)[C@H]1[C@@H]2C [TOMATIDINE] | > 20 µM | > 20 µM
CCC1(c2ccccc2)CCC(=O)NC1=O (centres undefined) [GLUTETHIMIDE] | > 20 µM | > 20 µM
O=C(CCCN1CCN(c2ccccn2)CC1)c1ccc(F)cc1 [AZAPERONE] | > 20 µM | > 20 µM
CN(C)c1cc2c(cc1Sc1nc3c(N)nccc3n1CCNCC(C)(C)C)OCO2 [CUDC-305] | > 20 µM | > 20 µM
Cc1nc(C(=O)N2CCCC[C@H]2CNC(=O)c2cccc3occc23)c(-c2ccc(F)cc2)s1 [SB-649868] | > 20 µM | > 20 µM
Nc1ccc(C(=O)O)cc1 [AMINOBENZOIC ACID] | > 20 µM | > 20 µM
CC(C)C(NC(=O)C(CC(=O)O)NC(=O)C(CCCCN)NC(=O)C(N)CCCNC(=N)N)C(=O)NC(Cc1ccc(O)cc1)C(=O)O (centres undefined) (H-RKDVY-OH; configuration not given here) | > 20 µM | > 20 µM
O=C(Cc1ccc(-c2ccccc2)cc1)Nc1ccccn1 [DIFENPIRAMIDE] | > 20 µM | > 20 µM
COC1=C(O)C(=O)c2c(cc3oc(C(C)=O)c(O)c3c2O)C1=O [RHODOCLADONIC ACID] | > 20 µM | > 20 µM
CC1(CN2CCC(n3c(=O)[nH]c4ccccc43)CC2)OCc2ccccc2-n2cccc21 (centres undefined) [ZALDARIDE] | > 20 µM | > 20 µM
CN1C(=O)OC(C)(C)C1=O [TRIMETHADIONE] | > 20 µM | > 20 µM
COc1cc(NC(=O)Nc2cccc(CNC(=O)O[C@H]3CCOC3)c2)ccc1-c1cnco1 [MERIMEPODIB] | > 20 µM | > 20 µM
CC(CCC(=O)O)C1CCC2C3C(=O)C[C@@H]4CC(=O)CC[C@]4(C)C3CC(=O)[C@]12C (some centres undefined) | > 20 µM | > 20 µM
CC1(C(=O)O)CCC2(C)CCC3(C)C(=CC(=O)C4C5(C)CCC(O)C(C)(C)C5CCC43C)C2C1 (centres undefined) | > 20 µM | > 20 µM
C[C@@H]1CC[C@]2(C(=O)O)CC[C@]3(C)C(=CCC4[C@@]5(C)CC[C@H](O)C(C)(C)C5CC[C@]43C)C2[C@H]1C (some centres undefined) | > 20 µM | > 20 µM
CCC[C@H](NC(=O)[C@@H]1[C@H]2CCC[C@H]2CN1C(=O)[C@@H](NC(=O)[C@@H](NC(=O)c1cnccn1)C1CCCCC1)C(C)(C)C)C(=O)C(=O)NC1CC1 | > 20 µM | > 20 µM
CCOc1cc2c(c(F)c1OCC)C(=N)N(CC(=O)c1cc(N3CCOCC3)c(OC)c(C(C)(C)C)c1)C2 [ATOPAXAR] | > 20 µM | > 20 µM
CC(=O)C1CCC2C3CCC4=CC(=O)CCC4(C)C3C(O)CC12C (centres undefined) | > 20 µM | > 20 µM

SMILES | IC50 | IC50 (read-out: pIC50 (converted))
CCOC(=O)[C@H](CCc1ccccc1)N[C@H]1CS[C@H](c2cccs2)CN(CC(=O)O)C1=O [TEMOCAPRIL] | > 20 µM | > 20 µM
Cc1nc2cccc(N)c2c(=O)n1C1CCC(=O)NC1=O (centres undefined) [AVADOMIDE] | > 20 µM | > 20 µM
NCCCCCC(=O)O [AMINOCAPROIC ACID] | > 20 µM | > 20 µM
O=c1c(O)cc([C@H]2Oc3cc(O)cc(O)c3C[C@H]2O)cc2c([C@H]3Oc4cc(O)cc(O)c4C[C@H]3O)cc(O)c(O)c12 [THEAFLAVIN] | > 20 µM | > 20 µM
Cc1cc(C(C)(C)C)cc(C)c1CC1=NCCN1 [XYLOMETAZOLINE] | > 20 µM | > 20 µM
CN(C)CCCn1c2c(c3ccccc31)CCCCCC2 [IPRINDOLE] | > 20 µM | > 20 µM
Nc1c(CC(=O)O)cccc1C(=O)c1ccccc1 [AMFENAC] | > 20 µM | > 20 µM
CCC(=O)C1(c2cccc(O)c2)CCN(C)CC1 [KETOBEMIDONE] | > 20 µM | > 20 µM
Nc1ccc(C(=O)NCC(=O)O)cc1 [AMINOHIPPURIC ACID] | > 20 µM | > 20 µM
CN1CCN(C(c2ccccc2)c2ccc(Cl)cc2)CC1 (centres undefined) [CHLORCYCLIZINE] | > 20 µM | > 20 µM
COc1ccc(OC)c(C(O)C(C)NC(C)(C)C)c1 (centres undefined) [BUTOXAMINE] | > 20 µM | > 20 µM
CCOC(=O)C1(c2ccccc2)CCN(CCC(C#N)(c2ccccc2)c2ccccc2)CC1 [DIPHENOXYLATE] | > 20 µM | > 20 µM
O=C(Oc1ccccc1C(=O)O)c1ccccc1O [SALSALATE] | > 20 µM | > 20 µM
CC1(C)S[C@@H]2[C@H](NC(=O)C3(N)CCCCC3)C(=O)N2[C@H]1C(=O)O [CYCLACILLIN] | > 20 µM | > 20 µM
COC(=S)NCCn1c([N+](=O)[O-])cnc1C [CARNIDAZOLE] | > 20 µM | > 20 µM
CCCCCCOC(=O)NC(=N)c1ccc(NCc2nc3cc(C(=O)N(CCC(=O)OCC)c4ccccn4)ccc3n2C)cc1 [DABIGATRAN ETEXILATE] | > 20 µM | > 20 µM
O=C(NC(Cc1cc(=O)[nH]c2ccccc12)C(=O)O)c1ccc(Cl)cc1 (centres undefined) [REBAMIPIDE] | > 20 µM | > 20 µM
CC12CCC3C4CCC(=O)C=C4CCC3C1CCC2OC(=O)CCc1ccccc1 (centres undefined) | > 20 µM | > 20 µM
O=c1[nH]c(=O)n([C@H]2C[C@H](O)[C@@H](CO)O2)cc1Br [BROXURIDINE] | > 50.1 µM | > 50.1 µM
O=C(O)c1cccc(-c2noc(-c3ccccc3F)n2)c1 | > 20 µM | > 20 µM
COc1ccc(-c2coc3cc(O)ccc3c2=O)cc1 [FORMONONETIN] | > 20 µM | > 20 µM
CN(CC(=O)N1CCOCC1)Cc1c(Cl)cccc1NC(=O)c1ccccc1 [FOMINOBEN] | > 20 µM | > 20 µM
Oc1ccc(/C=C/c2cc(O)cc(O)c2)cc1 [RESVERATROL] | > 20 µM | > 20 µM
C1N2CN3CN1CN(C2)C3 [METHENAMINE] | > 20 µM | > 20 µM

— ChEMBL document CHEMBL4651402, “Screening of ~5500 FDA-approved drugs and clinical candidates for anti-SARS-CoV-2 activity” (2021)
